Test results: ChEMBL document CHEMBL1139195, “Further studies of tyrosine surrogates in opioid receptor peptide ligands” (Bioorg Med Chem Lett, 2007)
pEC50, pKi: −log10 of the molar value. *1 amine or outer side, *2 acyl side, *3 side chain or, on linkers, in order; H or OH if unused. Where a SMILES comes first, the peptide text is derived from it. [ ]: non-standard residue; d: D form. Ala(2-NH2-benzothiazol-6-yl) = Nc1nc2ccc(C[C@H](N)C(=O)O)cc2s1; Phe(2,6-Me2,4-CONH2) = Cc1cc(C(N)=O)cc(C)c1C[C@H](N)C(=O)O; Phe(3-CONH2) = NC(=O)c1cccc(C[C@H](N)C(=O)O)c1; Phe(4-CONH2) = NC(=O)c1ccc(C[C@H](N)C(=O)O)cc1; X1 = O=C([C@H](Cc1cc[n+]([O-])cc1)N[*:1])[*:2]

How the values were obtained:
[1] = target: Kappa-type opioid receptor (Homo sapiens, UniProt P41145)
Sequence of Kappa-type opioid receptor (P41145 whole entry): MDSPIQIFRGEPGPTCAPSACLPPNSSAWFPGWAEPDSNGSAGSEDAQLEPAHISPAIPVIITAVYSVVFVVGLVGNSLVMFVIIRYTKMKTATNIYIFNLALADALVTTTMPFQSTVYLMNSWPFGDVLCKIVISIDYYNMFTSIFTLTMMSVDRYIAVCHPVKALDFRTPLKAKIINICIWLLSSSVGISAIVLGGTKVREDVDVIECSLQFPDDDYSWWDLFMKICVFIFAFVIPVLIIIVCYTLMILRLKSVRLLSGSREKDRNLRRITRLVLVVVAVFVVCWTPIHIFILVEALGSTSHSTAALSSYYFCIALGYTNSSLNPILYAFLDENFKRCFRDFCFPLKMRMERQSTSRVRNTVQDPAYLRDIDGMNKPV

Mu-type opioid receptor [2] = target: T1, Mu-type opioid receptor (Homo sapiens, UniProt P35372)
T1 sequence (P35372 whole entry): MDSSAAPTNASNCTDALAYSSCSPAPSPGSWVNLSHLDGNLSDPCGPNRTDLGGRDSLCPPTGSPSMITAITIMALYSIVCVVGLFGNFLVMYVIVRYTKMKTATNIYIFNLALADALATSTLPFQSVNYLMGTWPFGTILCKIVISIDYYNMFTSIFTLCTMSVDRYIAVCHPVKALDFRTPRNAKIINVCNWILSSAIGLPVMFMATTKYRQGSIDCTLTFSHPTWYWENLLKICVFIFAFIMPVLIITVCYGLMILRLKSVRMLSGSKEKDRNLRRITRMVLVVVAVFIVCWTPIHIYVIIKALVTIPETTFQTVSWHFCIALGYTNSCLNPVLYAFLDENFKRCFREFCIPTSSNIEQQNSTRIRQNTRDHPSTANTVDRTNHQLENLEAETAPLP

[3] = target: T2, Delta-type opioid receptor (Homo sapiens, UniProt P41143)
T2 sequence (P41143 whole entry): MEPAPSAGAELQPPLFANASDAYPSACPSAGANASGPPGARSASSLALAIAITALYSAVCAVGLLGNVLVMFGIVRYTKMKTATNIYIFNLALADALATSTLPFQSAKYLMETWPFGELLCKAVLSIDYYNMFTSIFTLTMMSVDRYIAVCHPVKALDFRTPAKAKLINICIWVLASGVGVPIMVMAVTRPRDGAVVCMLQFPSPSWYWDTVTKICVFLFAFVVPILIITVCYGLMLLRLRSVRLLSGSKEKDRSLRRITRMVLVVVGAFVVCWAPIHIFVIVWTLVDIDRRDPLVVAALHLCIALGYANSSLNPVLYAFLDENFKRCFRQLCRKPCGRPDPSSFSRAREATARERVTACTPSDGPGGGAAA

[4] = target: T2, Delta-type opioid receptor; format: functional
Mu-type opioid receptor [5] = target: T1, Mu-type opioid receptor; format: functional

Compound `CSCC[C@H](NC(=O)[C@H](Cc1ccccc1)NC(=O)CNC(=O)CNC(=O)[C@@H](N)Cc1ccc(O)cc1)C(=O)O` has a pKi [1] of under 5.00.

In the case of `CC1(C)SSC(C)(C)[C@@H](NC(=O)[C@@H](N)Cc2ccc(C(N)=O)cc2)C(=O)NCC(=O)N[C@@H](Cc2ccccc2)C(=O)N[C@H]1C(=O)O`, the pKi (Mu-type opioid receptor [2]) was under 5.00, the pKi [3] was 7.72 and the pKi [1] was under 5.00. It also gave a pEC50 [4] of 6.49.

In the case of `CC(C)C[C@H](NC(=O)[C@H](Cc1ccccc1)NC(=O)CNC(=O)[C@@H](CO)NC(=O)[C@@H](N)Cc1ccc2nc(N)sc2c1)C(=O)N[C@H](C(=O)O)[C@@H](C)O`, the pKi (Mu-type opioid receptor [2]) was 6.19, the pKi [3] was 8.42 and the pKi [1] was under 5.00. The pEC50 [4] was 7.01.

With `CSCC[C@H](NC(=O)[C@H](Cc1ccccc1)NC(=O)CNC(=O)[C@@H](C)NC(=O)[C@@H](N)Cc1ccc2nc(N)sc2c1)C(=O)O` the pKi (Mu-type opioid receptor [2]) was 7.00, the pKi [3] was 9.00 and the pKi [1] was under 5.00. For the same compound, the pEC50 (Mu-type opioid receptor [5]) was 6.46 and the pEC50 [4] was 7.62.

With `CC(C)C[C@@H](NC(=O)[C@H](Cc1ccccc1)NC(=O)CNC(=O)[C@@H](C)NC(=O)[C@@H](N)Cc1cccc(C(N)=O)c1)C(=O)O` the pKi (Mu-type opioid receptor [2]) was 6.25, the pKi [3] was 6.77 and the pKi [1] was under 5.00. It also gave a pEC50 [4] of 5.77.

`CC(C)C[C@H](NC(=O)[C@H](Cc1ccccc1)NC(=O)CNC(=O)[C@@H](CO)NC(=O)[C@@H](N)Cc1cc[n+]([O-])cc1)C(=O)N[C@H](C(=O)O)[C@@H](C)O` showed a pKi (Mu-type opioid receptor [2]) of under 5.00, a pKi [3] of 6.44 and a pKi [1] of under 5.00.

`CC(C)C[C@@H](NC(=O)[C@H](Cc1ccccc1)NC(=O)CNC(=O)[C@@H](C)NC(=O)[C@@H](N)Cc1ccc2nc(N)sc2c1)C(=O)O` gave a pKi (Mu-type opioid receptor [2]) of 5.92, a pKi [3] of 8.00 and a pKi [1] of under 5.00. For the same compound, the pEC50 [4] was 6.82.

`CC(C)C[C@@H](NC(=O)[C@H](Cc1ccccc1)NC(=O)CNC(=O)[C@@H](C)NC(=O)[C@@H](N)Cc1ccc(C(=O)O)cc1)C(=O)O` gave a pKi (Mu-type opioid receptor [2]) of under 5.00, a pKi [3] of 5.96 and a pKi [1] of under 5.00.

For `CC(C)C[C@@H](NC(=O)[C@H](Cc1ccccc1)NC(=O)CNC(=O)[C@@H](C)NC(=O)[C@@H](N)Cc1ccc(N)cc1)C(=O)O`, the pKi (Mu-type opioid receptor [2]) was 5.85, the pKi [3] was 7.72 and the pKi [1] was under 5.00. For the same compound, the pEC50 [4] was 7.13.

Work on `CSCC[C@H](NC(=O)[C@H](Cc1ccccc1)NC(=O)CNC(=O)CNC(=O)[C@@H](N)Cc1ccc(O)cc1)C(N)=O` yielded a pKi [1] of 6.68.

`CC(C)C[C@@H](NC(=O)[C@H](Cc1ccccc1)NC(=O)CNC(=O)[C@@H](C)NC(=O)[C@@H](N)Cc1cc[n+]([O-])cc1)C(=O)O` showed a pKi (Mu-type opioid receptor [2]) of under 5.00, a pKi [3] of under 5.00 and a pKi [1] of under 5.00.

In the case of `Cc1cc(C(N)=O)cc(C)c1C[C@H](N)C(=O)N[C@H](C)C(=O)NCC(=O)N[C@@H](Cc1ccccc1)C(=O)N[C@H](CC(C)C)C(=O)O`, the pKi (Mu-type opioid receptor [2]) was 8.01, the pKi [3] was 9.11 and the pKi [1] was 5.62. The pEC50 (Mu-type opioid receptor [5]) was 7.31 and the pEC50 [4] was 8.60.

`Cc1cc(C(N)=O)cc(C)c1C[C@H](N)C(=O)N[C@H](CO)C(=O)NCC(=O)N[C@@H](Cc1ccccc1)C(=O)N[C@@H](CC(C)C)C(=O)N[C@H](C(=O)O)[C@@H](C)O` showed a pKi (Mu-type opioid receptor [2]) of 7.72, a pKi [3] of 8.92 and a pKi [1] of under 5.00. For the same compound, the pEC50 (Mu-type opioid receptor [5]) was 6.60 and the pEC50 [4] was 8.46.

With `CC(C)C[C@H](NC(=O)[C@H](Cc1ccccc1)NC(=O)CNC(=O)[C@@H](CO)NC(=O)[C@@H](N)Cc1cccc(C(N)=O)c1)C(=O)N[C@H](C(=O)O)[C@@H](C)O` the pKi (Mu-type opioid receptor [2]) was 5.96, the pKi [3] was 7.38 and the pKi [1] was under 5.00. The pEC50 [4] was 6.14.

In the case of `CC(C)C[C@H](NC(=O)[C@H](Cc1ccccc1)NC(=O)CNC(=O)CNC(=O)[C@@H](N)Cc1ccc2nc(N)sc2c1)C(=O)O` (H-[Ala(2-NH2-benzothiazol-6-yl)]GGFL-OH), the pKi (Mu-type opioid receptor [2]) was 5.92, the pKi [3] was 7.72 and the pKi [1] was under 5.00. For the same compound, the pEC50 [4] was 6.24.

In the case of `Cc1cc(C(N)=O)cc(C)c1C[C@H](N)C(=O)NCC(=O)NCC(=O)N[C@@H](Cc1ccccc1)C(=O)N[C@@H](CC(C)C)C(=O)O` (H-[Phe(2,6-Me2,4-CONH2)]GGFL-OH), the pKi (Mu-type opioid receptor [2]) was 8.01, the pKi [3] was 9.00 and the pKi [1] was 5.89. It also gave a pEC50 (Mu-type opioid receptor [5]) of 6.74 and a pEC50 [4] of 8.39.

`CC(C)C[C@H](NC(=O)[C@H](Cc1ccccc1)NC(=O)CNC(=O)CNC(=O)[C@@H](N)Cc1cccc(C(N)=O)c1)C(=O)O` (H-[Phe(3-CONH2)]GGFL-OH) showed a pKi (Mu-type opioid receptor [2]) of under 5.00, a pKi [3] of 6.32 and a pKi [1] of under 5.00.

`CSCC[C@H](NC(=O)[C@H](Cc1ccccc1)NC(=O)CNC(=O)CNC(=O)[C@@H](N)Cc1ccc(C(N)=O)cc1)C(N)=O` (H-[Phe(4-CONH2)]GGFM-NH2) was tested, and the pKi (Mu-type opioid receptor [2]) was 7.74, the pKi [3] was 8.89 and the pKi [1] was 6.34. For the same compound, the pEC50 (Mu-type opioid receptor [5]) was 6.57 and the pEC50 [4] was 8.00.

With `CSCC[C@H](NC(=O)[C@H](Cc1ccccc1)NC(=O)CNC(=O)CNC(=O)[C@@H](N)Cc1ccc(C(N)=O)cc1)C(=O)O` (H-[Phe(4-CONH2)]GGFM-OH) the pKi (Mu-type opioid receptor [2]) was 7.55, the pKi [3] was 8.74 and the pKi [1] was 5.99. For the same compound, the pEC50 (Mu-type opioid receptor [5]) was 6.85 and the pEC50 [4] was 8.28.

`CC(C)C[C@H](NC(=O)[C@H](Cc1ccccc1)NC(=O)CNC(=O)CNC(=O)[C@@H](N)Cc1cc[n+]([O-])cc1)C(=O)O` (H-[X1]GGFL-OH) showed a pKi (Mu-type opioid receptor [2]) of under 5.00, a pKi [3] of under 5.00 and a pKi [1] of under 5.00.
